Reference: ChEMBL document CHEMBL5244212, “Recent advances in the rational design and development of LIM kinase inhibitors are not enough to enter clinical trials” (Eur J Med Chem, 2018)
Values belong to the molecule of their own block, whether it stands above or below them.

How the values were obtained:
[1] = tested on: MDA-MB-231; assay: Cytotoxicity against human MDA-MB-231 cells assessed as reduction in cell viability incubated for 96 hrs at 3 uM by MTT method relative to control; type: functional
[2] = biological target: cAMP-dependent protein kinase (PKA) (Homo sapiens) (UniProt P22694+P17612+P22612); assay: Inhibition of PKA (unknown origin) assessed as fold increase; type: protein assay
[3] = species: Homo sapiens; assay: Selectivity index, ratio of IC50 for ROCK2 (unknown origin) to IC50 for PKA (unknown origin)
[4] = biological target: T1, LIM domain kinase 1 (Homo sapiens, UniProt P53667); assay: Inhibition of human LIMK1 (321 to 647 residues) expressed in Sf9 cells using […] as substrate incubated for 30 mins by micro-scintillation fluid method
Target sequence in this assay (P53667 whole entry, the tested form may be a part): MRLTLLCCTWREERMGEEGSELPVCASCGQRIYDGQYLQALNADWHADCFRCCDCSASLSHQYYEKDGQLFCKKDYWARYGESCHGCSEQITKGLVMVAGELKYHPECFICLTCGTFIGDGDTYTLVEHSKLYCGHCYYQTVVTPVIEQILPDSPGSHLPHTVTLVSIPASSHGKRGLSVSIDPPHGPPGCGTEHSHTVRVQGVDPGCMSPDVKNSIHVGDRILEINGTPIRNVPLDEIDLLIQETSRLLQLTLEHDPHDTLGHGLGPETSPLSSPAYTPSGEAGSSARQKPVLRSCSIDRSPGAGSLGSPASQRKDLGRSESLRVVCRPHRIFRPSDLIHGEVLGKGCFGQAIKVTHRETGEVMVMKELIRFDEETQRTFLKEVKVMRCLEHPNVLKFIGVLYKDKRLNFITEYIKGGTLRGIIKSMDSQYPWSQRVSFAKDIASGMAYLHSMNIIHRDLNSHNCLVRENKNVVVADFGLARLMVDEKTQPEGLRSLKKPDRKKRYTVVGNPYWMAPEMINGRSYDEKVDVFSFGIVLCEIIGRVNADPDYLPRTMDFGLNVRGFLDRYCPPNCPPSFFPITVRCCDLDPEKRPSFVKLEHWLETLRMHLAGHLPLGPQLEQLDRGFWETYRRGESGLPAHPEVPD

[5] = biological target: T1, LIM domain kinase 1; assay: Inhibition of human LIMK1 (312 to 638 residues) expressed in Sf9 cells using […] as substrate incubated for 30 mins by micro-scintillation fluid method
Target sequence in this assay (P53667 whole entry, looked up, the tested form may be a part): as the sequence (P53667 whole entry, the tested form may be a part) above

[6] = biological target: T1, LIM domain kinase 1; assay: Inhibition of LIMK1 (unknown origin)
Target sequence in this assay (P53667 whole entry, the tested form may be a part): as above

[7] = biological target: T2, LIM domain kinase 2 (Homo sapiens, UniProt P53671); assay: Inhibition of LIMK2 (unknown origin)
[8] = species: Mus musculus; assay: Antiglaucoma activity in ocular […] mouse assessed as reduction in intraocular pressure at 15 ug measured after 4 hrs; type: functional; conditions: dose 15 µg
[9] = tested on: PANC-1; assay: Anti-tumor activity against human PANC-1 cells xenografted in athymic nude mouse assessed as reduction in tumor growth at 100 mg/kg, ip measured after 35 days relative to control; type: functional; set-up: scale not given: the % may be the effect or the level left; conditions: time 35 day
[10] = tested on: PANC-1; assay: Cytotoxicity against human PANC-1 cells assessed as reduction in cell growth relative to control; type: functional; set-up: scale not given: the % may be the effect or the level left
[11] = Half life in rat, iv at 1 mg/kg; type: ADME, organism-based; conditions: in vivo
[12] = biological target: T2, LIM domain kinase 2; assay: Inhibition of LIMK2 (unknown origin) in presence of ATP at 25 uM
[13] = tested on: Human immunodeficiency virus; assay: Antiviral activity against HIV at 10 uM relative to control; type: functional
[14] = tested on: Human immunodeficiency virus; assay: Antiviral activity against HIV at 1 uM relative to control; type: functional
[15] = tested on: Human immunodeficiency virus; assay: Antiviral activity against HIV at 100 uM relative to control; type: functional
[16] = cells; conditions: Mus musculus, NF-1
Description: Cytotoxicity against mouse NF-1 cells assessed as reduction in cell growth

[17] = biological target: T2, LIM domain kinase 2; assay: Inhibition of human recombinant LIMK2
[18] = biological target: T1, LIM domain kinase 1; assay: Inhibition of human recombinant LIMK1
Target sequence in this assay (P53667 whole entry, the tested form may be a part): as above

[19] = biological target: Rho-associated protein kinase 2 (Homo sapiens, UniProt O75116); assay: Inhibition of human recombinant ROCK2 by ADP glo kinase assay
[20] = Inhibition of AbI (unknown origin); set-up: species or system Homo sapiens
[21] = biological target: T1, LIM domain kinase 1; assay: Inhibition of LIMK1 (unknown origin) phosphorylation of cofilin
Target sequence in this assay (P53667 whole entry, the tested form may be a part): as above

[22] = biological target: T2, LIM domain kinase 2; assay: Inhibition of LIMK2 (unknown origin) in presence of ATP at 200 uM

T2 sequence (P53671 whole entry, the tested form may be a part): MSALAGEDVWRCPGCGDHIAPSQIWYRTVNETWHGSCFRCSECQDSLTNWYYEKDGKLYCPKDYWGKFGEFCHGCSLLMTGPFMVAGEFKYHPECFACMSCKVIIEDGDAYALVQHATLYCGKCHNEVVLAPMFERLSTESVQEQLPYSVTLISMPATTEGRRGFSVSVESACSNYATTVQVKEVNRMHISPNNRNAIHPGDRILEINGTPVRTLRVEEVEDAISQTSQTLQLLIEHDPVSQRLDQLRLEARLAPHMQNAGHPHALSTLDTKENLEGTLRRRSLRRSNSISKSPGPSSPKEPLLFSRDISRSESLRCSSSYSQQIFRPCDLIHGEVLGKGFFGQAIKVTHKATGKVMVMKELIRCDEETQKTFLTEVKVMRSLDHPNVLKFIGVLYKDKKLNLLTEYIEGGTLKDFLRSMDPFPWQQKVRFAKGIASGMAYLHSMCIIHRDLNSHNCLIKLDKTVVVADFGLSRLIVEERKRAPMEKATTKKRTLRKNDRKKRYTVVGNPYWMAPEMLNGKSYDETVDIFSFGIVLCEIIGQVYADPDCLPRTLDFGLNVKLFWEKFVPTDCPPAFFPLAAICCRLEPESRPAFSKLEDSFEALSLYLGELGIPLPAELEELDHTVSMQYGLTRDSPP
Chain of Rho-associated protein kinase 2 (O75116 whole entry): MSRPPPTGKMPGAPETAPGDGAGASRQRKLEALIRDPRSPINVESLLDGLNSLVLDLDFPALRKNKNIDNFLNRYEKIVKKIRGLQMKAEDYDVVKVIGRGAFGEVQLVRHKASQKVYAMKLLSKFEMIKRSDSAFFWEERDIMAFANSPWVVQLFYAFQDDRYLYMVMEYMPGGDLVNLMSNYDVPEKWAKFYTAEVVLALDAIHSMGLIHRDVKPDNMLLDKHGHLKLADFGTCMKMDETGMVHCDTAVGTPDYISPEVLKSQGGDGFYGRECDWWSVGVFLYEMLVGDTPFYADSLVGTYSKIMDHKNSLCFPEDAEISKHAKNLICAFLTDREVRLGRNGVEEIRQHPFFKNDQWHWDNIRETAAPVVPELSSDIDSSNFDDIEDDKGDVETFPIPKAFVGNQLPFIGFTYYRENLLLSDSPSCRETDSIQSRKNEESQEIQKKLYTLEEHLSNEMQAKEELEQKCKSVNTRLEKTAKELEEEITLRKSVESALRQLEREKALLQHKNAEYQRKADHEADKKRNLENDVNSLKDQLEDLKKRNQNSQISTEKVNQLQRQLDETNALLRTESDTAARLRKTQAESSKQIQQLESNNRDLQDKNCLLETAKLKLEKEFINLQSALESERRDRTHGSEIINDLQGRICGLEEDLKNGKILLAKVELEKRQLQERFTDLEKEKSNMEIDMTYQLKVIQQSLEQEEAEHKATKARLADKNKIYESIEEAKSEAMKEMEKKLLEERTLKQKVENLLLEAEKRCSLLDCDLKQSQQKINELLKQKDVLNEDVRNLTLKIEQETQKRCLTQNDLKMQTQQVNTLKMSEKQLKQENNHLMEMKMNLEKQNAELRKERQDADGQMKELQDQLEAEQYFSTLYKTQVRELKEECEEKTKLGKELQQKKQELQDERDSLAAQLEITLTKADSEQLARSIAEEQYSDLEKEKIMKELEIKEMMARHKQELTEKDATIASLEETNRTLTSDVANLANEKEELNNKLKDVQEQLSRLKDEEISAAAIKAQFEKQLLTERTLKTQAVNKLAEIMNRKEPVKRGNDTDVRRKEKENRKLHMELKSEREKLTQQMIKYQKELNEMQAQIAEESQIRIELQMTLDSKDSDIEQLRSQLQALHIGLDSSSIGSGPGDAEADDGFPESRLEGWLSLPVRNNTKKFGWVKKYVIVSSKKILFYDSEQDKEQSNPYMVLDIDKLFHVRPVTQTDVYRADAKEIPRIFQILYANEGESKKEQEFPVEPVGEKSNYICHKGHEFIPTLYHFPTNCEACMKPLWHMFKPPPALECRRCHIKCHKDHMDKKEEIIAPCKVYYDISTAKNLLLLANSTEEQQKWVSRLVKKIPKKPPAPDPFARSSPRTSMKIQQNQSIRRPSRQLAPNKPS

Structure (SMILES): Cc1ccc(-c2cnccc2-c2cnc(Nc3ccc(O)cc3)s2)c(Cl)c1
Activity [1]: 96%

Structure (SMILES): CN(C)C(=O)Oc1cccc(NC(=O)C2(CN)CCN(c3ncnc4[nH]c5c(c34)CCCC5)CC2)c1
fold change (FC) [2]: 0.7 | Selectivity Index [3]: 1

IC50 [4]: 5 nM | IC50 [5]: 6 nM
Structure (SMILES): O=C(Nc1ncc(-c2cc(C(F)F)nn2-c2c(Cl)cccc2Cl)s1)C1CC1

Structure (SMILES): COc1cc(-c2nn(C3CCC(N4CCN(C)CC4)CC3)c3ncnc(N)c23)ccc1NC(=O)OCc1ccccc1 (configuration not stated)
IC50 [6]: 900 nM | IC50 [7]: 800 nM

Structure (SMILES): Cc1c[nH]c2ncnc(N3CCN(C(=O)Nc4cccc(OC(=O)N(C)C)c4)[C@@H](C)C3)c12
Activity [8]: 3 mmHg

Structure (SMILES): Cc1cc(C(=O)Nc2cccc(C(=O)Nc3cccc(C(F)(F)F)c3)c2)on1
Activity [9]: 80% | Activity [10]: 46%

half-life [11]: 360 min
Structure (SMILES): Cc1c[nH]c2ncnc(-c3ccc(NC(=O)N(CCN(C)C)c4ccc(Cl)cc4)cc3)c12

Structure (SMILES): Cc1c[nH]c2ncnc(N3CCC(C(=O)Nc4cccc(OC(=O)N(C)C)c4)[C@@H](C)C3)c12 (some centres not stated)
IC50 [12]: 110 nM

Structure (SMILES): COC(=O)c1ccc2[nH]c(C3CCN(c4ncnc5[nH]cc(Cl)c45)CC3)nc2c1
Activity [13]: 70% | Activity [14]: 50% | Activity [15]: 80%

EC50 [16]: 30 µM
Structure (SMILES): CC(C)C(=O)Nc1ncc(-c2cc(C(F)F)nn2-c2c(Cl)cccc2Cl)s1

Structure (SMILES): Cc1[nH]c2ncnc(N3CCC(CN)(C(=O)Nc4cccc(OC(=O)N(C)C)c4)CC3)c2c1C
IC50 [6]: 23 nM

IC50 [17]: 75 nM | IC50 [18]: 50 nM
Structure (SMILES): Cc1c2cc[nH]c(=O)c2c(C)c2c1[nH]c1ccc(OC(=O)c3ccccc3)cc12

IC50 [19]: 18 nM
Structure (SMILES): Cc1c[nH]c2ncnc(-c3ccc(NC(=O)Nc4cccc(C(=O)NC(C)C)c4)cc3F)c12

Structure (SMILES): Cc1c[nH]c2ncnc(N3CCC(C(=O)Nc4cccc(OC(=O)N(C)C)c4)C(C)C3)c12 (configuration not stated)
IC50 [12]: 210 nM

Structure (SMILES): CC(C)CNc1ncc(-c2ccncc2-c2ccccc2Cl)s1
Activity [1]: 70%

IC50 [20]: 6 nM
Structure (SMILES): CN(Cc1ccccc1)C(=O)c1ccc(S(=O)(=O)Nc2ccccc2)cc1

IC50 [21]: 8 nM
Structure (SMILES): COCCN(C(=O)Nc1ccc(-c2ncnc3[nH]c(C)c(C)c23)c(F)c1)c1ccc(Cl)cc1

IC50 [7]: 0.1 nM
Structure (SMILES): CN(C)C1(C(=O)Nc2cccc(-c3ccccc3)c2)CCN(c2ncnc3[nH]c4c(c23)CCCC4)CC1

Structure (SMILES): O=C(CC1CCCN1)Nc1ncc(-c2cc(C(F)F)nn2-c2c(Cl)cccc2Cl)s1 (configuration not stated)
Activity [8]: 5 mmHg

IC50 [22]: < 0.1 nM
Structure (SMILES): COC(=O)Cc1cccc(NC(=O)C2(CN)CCN(c3ncnc4[nH]c5c(c34)CC(F)CC5)CC2)c1 (configuration not stated)
